Experimental findings from patent US20260317319A1, “NOVEL ERGOLINES AND METHODS OF TREATING MOOD DISORDERS” (Gilgamesh Pharma Inc., priority 2023, published 2026) are described below.

Like-named read-outs stand apart in the source and are kept apart here. Where only a bound is given, the exact number is not on record here.

In one data set the test system is C57BL/6 mice. The data set is described as follows: Mouse head twitch response (HTR) assay (observer-counted). It counts as in vivo. To be noted: SC; for HTR at most efficacious dose (bound): 20 min. Here is the method: Agonists of the 5-HT2A receptor are well known to induce this effect in rodents and the potency of this HTR is correlated with hallucinogenic potency in humans.
Animals. Adult male C57BL/6 mice, aged 6-8 weeks (body weight 20-25 g) were used in this experiment. Animals were housed under controlled temperatures and 12-hour light/dark cycles (lights on between 07:00-19:00 h), with ad libitum food and water. This study was carried out in strict accordance with the requirements of the Committee for the Purpose of Control and Supervision of Experiments on Animals (CPCSEA), India. All efforts were made to minimize suffering.
Procedure. Mice were administered one dose of the drug and immediately placed into a small open field for behavioral observation. Animals were observed continuously for 20 mins and the number of head twitches (HTs) were counted by an observer blind to the treatment condition.
Statistical Analysis. The data points shown are the mean±standard error of the mean (SEM). Analysis was performed using GraphPad Prism 6. Curves were fit using a non-linear gaussian distribution to calculate ED50 and Emax values.
Additional disclosed compounds were tested in the mouse head twitch response (HTR) assay according to the procedure described in Example 57 (administered SC). […] Lastly, compounds with much larger benzyl and phenethyl substituents on the amine nitrogen (e.g., 10 and 11) were low efficacy in this assay, consistent with their bias toward arrestin signaling (see Example 55).

The nature of data set [1]: in vitro. It counts as in vitro ADME, mouse. An excerpt:
MLM Stability Pooled MLM from male CD-1 mice (BIOIVT M00501) were used.

Data set [2] has as its target T1, 5-HT2A receptor (Homo sapiens, UniProt P28223). The data set is described as follows: cell-based. Details: expressed in transfected cells; host or cells: HEK293, stably transfected. To be noted: Ca2+ flux; for Emax: HEK293, agonist, HEK293, max dose, read-out: 5-HT2A % Act @ Max Dose. Type of data set: cell-based. In outline:
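FLIPR Ca2+ flux agonist assay using stably transfected HEK293 (5-HT2A, 5-HT2B) or CHO cells co-expressing Gα15 (5-HT1A). Cells loaded with Fluo-4 Direct plus 2.5 mM probenecid (final) for 50 min at 37 °C, then compound added and fluorescence read.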

For the next data set, the target named is T2, 5-HT1A receptor (Homo sapiens, UniProt P08908).
T2 construct: expressed in transfected cells; host or cells: CHO cells, stably transfected
T2 sequence (P08908 1-422): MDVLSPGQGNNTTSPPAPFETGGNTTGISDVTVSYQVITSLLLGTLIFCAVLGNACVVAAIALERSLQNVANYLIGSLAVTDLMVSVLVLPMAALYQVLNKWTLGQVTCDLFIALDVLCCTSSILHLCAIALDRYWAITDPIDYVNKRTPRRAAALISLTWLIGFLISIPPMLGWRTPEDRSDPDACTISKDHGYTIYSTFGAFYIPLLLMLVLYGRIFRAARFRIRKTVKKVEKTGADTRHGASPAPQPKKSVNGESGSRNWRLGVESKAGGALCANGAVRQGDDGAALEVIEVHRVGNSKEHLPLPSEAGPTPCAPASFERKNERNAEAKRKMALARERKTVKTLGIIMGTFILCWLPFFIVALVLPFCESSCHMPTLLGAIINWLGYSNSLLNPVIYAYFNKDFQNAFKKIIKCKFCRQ
The experiment in a line: cell-based. To be noted: agonist, Ca2+ flux; for Emax: CHO, CHO cells with Gα15, max dose, read-out: 5-HT1A % Act @ Max Dose. In outline:
(§1)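 FLIPR Tetra fluorescence read-out of calcium flux after compound addition. Receptor-expressing stable lines were used (HEK293 for 2A/2B; CHO with Gα15 for 1A), dye-loaded with Fluo-4 Direct and 2.5 mM final probenecid, 50 min at 37 °C.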

The target of data set [3] is T3, 5-HT2B receptor (Homo sapiens, UniProt P41595).
T3 construct: expressed in transfected cells; host or cells: HEK293, stably transfected
T3 sequence (P41595 whole entry): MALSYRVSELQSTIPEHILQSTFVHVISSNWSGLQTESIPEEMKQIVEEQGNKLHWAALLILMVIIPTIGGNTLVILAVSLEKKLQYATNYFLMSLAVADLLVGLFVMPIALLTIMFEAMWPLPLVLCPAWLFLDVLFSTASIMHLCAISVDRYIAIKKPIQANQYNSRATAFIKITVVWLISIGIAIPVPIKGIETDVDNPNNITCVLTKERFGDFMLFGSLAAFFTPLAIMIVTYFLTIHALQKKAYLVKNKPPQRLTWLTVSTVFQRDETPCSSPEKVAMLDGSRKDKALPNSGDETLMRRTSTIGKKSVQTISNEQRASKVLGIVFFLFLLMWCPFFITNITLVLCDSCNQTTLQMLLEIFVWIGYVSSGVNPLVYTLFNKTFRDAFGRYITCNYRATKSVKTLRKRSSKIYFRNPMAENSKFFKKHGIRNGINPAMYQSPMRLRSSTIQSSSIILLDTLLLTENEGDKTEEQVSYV
The experiment in a line: cell-based. Type of data set: cell-based. To be noted: for Emax: HEK293, agonist, HEK293, max dose, read-out: 5-HT2B % Act @ Max Dose. In outline: as §1

Data set [4] concerns the target T1, 5-HT2A receptor. The experiment in a line: cell-based. Type of data set: cell-based. To be noted: beta-arrestin recruitment; for Emax: agonist, max dose, read-out: 5-HT2A Arrestin % Act @ Max Dose. In outline:
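PathHunter β-arrestin recruitment (enzyme fragment complementation): 5-HT2A fused to ProLink donor in cells co-expressing β-arrestin–β-galactosidase acceptor, seeded and held at 37° C before testing. Chemiluminescent read-out; agonist % activity = (sample RLU − vehicle)/(max control ligand − vehicle) × 100.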

The nature of data set [5]: in vitro. Type of data set: in vitro ADME, rat. The text has this:
RLM Stability Pooled RLM from male Sprague-Dawley rats (Xenotech R1000) were used.

Another data set deals with T4, 5-HT2C receptor (Homo sapiens, UniProt P28335).
T4 sequence (P28335 33-458): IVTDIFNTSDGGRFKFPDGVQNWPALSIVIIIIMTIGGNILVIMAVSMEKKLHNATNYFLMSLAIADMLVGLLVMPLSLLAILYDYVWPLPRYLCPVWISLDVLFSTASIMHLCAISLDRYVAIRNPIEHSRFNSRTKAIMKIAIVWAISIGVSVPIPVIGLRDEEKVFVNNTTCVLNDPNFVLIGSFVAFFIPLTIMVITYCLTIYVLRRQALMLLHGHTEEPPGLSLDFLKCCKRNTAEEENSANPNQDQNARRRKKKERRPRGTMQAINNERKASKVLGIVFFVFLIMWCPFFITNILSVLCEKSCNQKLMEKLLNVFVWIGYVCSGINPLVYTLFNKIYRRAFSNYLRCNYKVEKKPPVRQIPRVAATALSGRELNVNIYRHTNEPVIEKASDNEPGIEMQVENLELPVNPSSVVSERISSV
The experiment in a line: cell-based. To be noted: read-out: 5-HT2C % Act @ Max Dose.

Data set [6] is described as follows: in vitro. Type of data set: in vitro ADME, human.
Data set [7] deals with T1, 5-HT2A receptor. The data set is described as follows: biochemical. It counts as binding. Details: expressed in transfected cells; host or cells: HEK293, stably transfected. As to conditions: [3H]ketanserin 1 nM; HEK293 stable cell line; 1 h, 25 °C. In outline: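 Affinity was measured in radioligand binding experiments using [^3H]ketanserin as the labelled ligand, following methods adapted from published procedures.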

In data set [8] the target is T3, 5-HT2B receptor. The experiment in a line: 5-HT2B receptor radioligand binding ([3H]LSD). To be noted: read-out: 5-HT2B Receptor Ki.
[9] abbreviates: agonist, Ca2+ flux, Eurofins DiscoverX protocol, max dose.

T1 sequence (P28223 whole entry): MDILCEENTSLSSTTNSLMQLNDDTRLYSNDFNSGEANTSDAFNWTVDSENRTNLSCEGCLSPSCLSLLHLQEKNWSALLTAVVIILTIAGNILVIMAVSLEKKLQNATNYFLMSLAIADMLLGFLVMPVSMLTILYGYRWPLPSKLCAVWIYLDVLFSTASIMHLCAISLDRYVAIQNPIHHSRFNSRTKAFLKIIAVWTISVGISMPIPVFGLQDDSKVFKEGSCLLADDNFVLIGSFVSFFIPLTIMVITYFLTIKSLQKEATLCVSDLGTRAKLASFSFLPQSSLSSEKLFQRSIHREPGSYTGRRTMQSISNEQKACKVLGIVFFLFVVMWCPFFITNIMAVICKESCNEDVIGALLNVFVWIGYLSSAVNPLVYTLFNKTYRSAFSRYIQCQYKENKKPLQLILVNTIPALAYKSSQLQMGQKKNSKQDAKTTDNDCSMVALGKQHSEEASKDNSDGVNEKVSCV

In the case of `CCC[C@@H](C)NC(=O)[C@@H]1C=C2c3cccc4[nH]cc(c34)C[C@H]2N(CCC)C1` [Compound 7, (6aR,9R)—N—((R)-pentan-2-yl)-7-propyl-4,6,6a,7,8,9-hexahydroindolo[4,3-fg]quinoline-9-carboxamide], the “HTR at most efficacious dose (bound)” value with C57BL/6 mice is more than 15 HTR. The “stability in MLM” value in the data set “in vitro [1]” was “much lower stability (higher clearance)”. For the same molecule, the “half-life (t1/2)” value came out at 0.541 min in the data set “in vitro [1]” (MLM (male CD-1) 0.50 mg/mL, NADPH 1 mM, 1 μM compound, pH 7.4, 37° C., 60 min); 1.612 min in “in vitro [5]” (RLM (male Sprague-Dawley) 0.50 mg/mL, NADPH 1 mM, 1 μM compound, pH 7.4, 37° C., 60 min); 1.65 min in “in vitro [6]” (HLM 0.50 mg/mL, NADPH 1 mM, 1 μM compound, pH 7.4, 37° C., 60 min). The Emax was determined as 94.5% on 5-HT2A receptor [2]; 107% at 5-HT1A receptor; 94.8% on 5-HT2B receptor [3] (Ca2+ flux); 110% at 5-HT2A receptor [4]; 115% on 5-HT2C receptor (setting [9]). Moreover, the “selectivity for 5-HT2A over 5-HT2B” value at 5-HT2B receptor [3] (functional, compared to closest N-methyl counterparts Int8, Int11, Int17) was “more selective for 5-HT2A over 5-HT2B”. In addition, the “5-HT2A arrestin agonist class” value at 5-HT2A receptor [4] is listed as “full agonists”. Moreover, the “stability in RLM” value in the data set “in vitro [5]” is given as “much lower stability (higher clearance)”. The “stability in HLM” value in “in vitro [6]” was “much lower stability (higher clearance)”.
With `CCN(CC)C(=O)[C@@H]1C=C2c3cccc4[nH]cc(c34)C[C@H]2N(CC2CCCCC2)C1` [Compound 89, (6aR,9R)-7-(cyclohexylmethyl)-N,N-diethyl-4,6,6a,7,8,9-hexahydroindolo[4,3-fg]quinoline-9-carboxamide], the results for the inhibitory constant (Ki) at 5-HT2A receptor [7] and at 5-HT2B receptor [8] were 1.67 nM and 9.67 nM, respectively. The microsomal CLint in the data set “in vitro [1]” (mouse, microsomes, MLM (male CD-1) 0.50 mg/mL, NADPH 1 mM, 1 μM compound, pH 7.4, 37° C., 60 min, read-out: Intrinsic clearance (Clint)) amounted to 572 µL/min/mg; in “in vitro [5]” (rat, microsomes, RLM (male Sprague-Dawley) 0.50 mg/mL, NADPH 1 mM, 1 μM compound, pH 7.4, 37° C., 60 min, read-out: Intrinsic clearance (Clint)) it was 244 µL/min/mg; in the data set “in vitro [6]” (human, microsomes, HLM 0.50 mg/mL, NADPH 1 mM, 1 μM compound, pH 7.4, 37° C., 60 min, read-out: Intrinsic clearance (Clint)), 104 µL/min/mg. Besides, the half-life in “in vitro [1]” (mouse, microsomes, MLM (male CD-1) 0.50 mg/mL, NADPH 1 mM, 1 μM compound, pH 7.4, 37° C., 60 min, read-out: half-life (t1/2)) amounted to 2.4 min; in “in vitro [5]” (rat, microsomes, RLM (male Sprague-Dawley) 0.50 mg/mL, NADPH 1 mM, 1 μM compound, pH 7.4, 37° C., 60 min, read-out: half-life (t1/2)), 5.7 min; in the data set “in vitro [6]” (human, microsomes, HLM 0.50 mg/mL, NADPH 1 mM, 1 μM compound, pH 7.4, 37° C., 60 min, read-out: half-life (t1/2)), 13.3 min. Further, the Emax on 5-HT2A receptor [2] is 51.8%; at 5-HT1A receptor it was 84.4%; at 5-HT2B receptor [3] (Ca2+ flux) it was 11.5%. The EC50 at 5-HT2A receptor [2] (agonist, HEK293) was 839 nM; on 5-HT1A receptor (CHO cells with Gα15), more than 100000 nM; at 5-HT2B receptor [3] (agonist, Ca2+ flux, HEK293), more than 10000 nM.
For `CC[C@@H](C)NC(=O)[C@@H]1C=C2c3cccc4[nH]cc(c34)C[C@H]2N(CC)C1` [Compound 5, (6aR,9R)—N—((R)-sec-butyl)-7-ethyl-4,6,6a,7,8,9-hexahydroindolo[4,3-fg]quinoline-9-carboxamide], in the data set on C57BL/6 mice, the “HTR at most efficacious dose (bound)” value was more than 15 HTR. In addition, the “stability in MLM” value in the data set “in vitro [1]” is listed as “much lower stability (higher clearance)”. Besides, the Emax at 5-HT2A receptor [2] stood at 103%; at 5-HT1A receptor, 108%; on 5-HT2B receptor [3] (Ca2+ flux) it was 84.8%; at 5-HT2A receptor [4], 106%; at 5-HT2C receptor (setting [9]), 114%. Besides, on 5-HT2A receptor [4], the “5-HT2A arrestin agonist class” value is given as “full agonists”. For the same molecule, in “in vitro [5]”, the “stability in RLM” value is reported as “much lower stability (higher clearance)”. Also, the “stability in HLM” value in the data set “in vitro [6]” is “much lower stability (higher clearance)”.
Regarding `CCC[C@@H](C)NC(=O)[C@@H]1C=C2c3cccc4[nH]cc(c34)C[C@H]2N(C)C1` [Int17], the “HTR at most efficacious dose (bound)” value in the data set on C57BL/6 mice is less than 15 HTR. In addition, the “# HTR/20 min at Most Efficacious Dose” value in the data set on C57BL/6 mice (most efficacious dose 0.32 mg/kg) amounted to 6.0 HTR/20 min. For the same molecule, the “half-life (t1/2)” value was 8.252 min in “in vitro [1]” (mouse, microsomes, pH 7.4); 27.894 min in “in vitro [5]” (rat, microsomes, pH 7.4); 15.865 min in “in vitro [6]” (human, microsomes, pH 7.4). In addition, the Emax at 5-HT2A receptor [2] turned out to be 91.5%; on 5-HT1A receptor, 113%; at 5-HT2B receptor [3] (Ca2+ flux), 25.5%; on 5-HT2A receptor [4], 38.8%; at 5-HT2C receptor, 102%. Also, the “5-HT2A arrestin agonist class” value on 5-HT2A receptor [4] was “partial agonists”.
On to `CCC(CC)NC(=O)[C@@H]1C=C2c3cccc4[nH]cc(c34)C[C@H]2N(C)C1` [Int14], for which the “HTR at most efficacious dose (bound)” value with C57BL/6 mice was less than 15 HTR. The “half-life (t1/2)” value is reported as 6.07 min in “in vitro [1]” (mouse, microsomes, pH 7.4); 37.988 min in the data set “in vitro [5]” (rat, microsomes, pH 7.4); 17.593 min in the data set “in vitro [6]” (human, microsomes, pH 7.4). The Emax was 93.3% on 5-HT2A receptor [2]; 102% on 5-HT1A receptor; 9.84% on 5-HT2B receptor [3] (Ca2+ flux); 44.4% at 5-HT2A receptor [4]; 99.1% at 5-HT2C receptor. For the same molecule, at 5-HT2A receptor [4], the “5-HT2A arrestin agonist class” value is “partial agonists”.
